According to EP0516082A2, “Gingerol and gingerdiol derivatives as hypocholesterolemic and antiatherosclerotic agents” (priority 1991, dated 1992):
pIC50: −log10 of the molar value.

Key:
plasma = assay: Inhibition of plasma lipid peroxidation (cupric sulfate induced, thiobarbituric acid assay, method of Yagi et al.); assay type: biochemical; details: 0.1 mL of plasma, cupric sulfate 2 mM, 37°C for 2.5 hours or 18 hours; for pIC50: read-out: Plas.Lipid Perox. IC₅₀; for Plas.Lipid Perox. ID₅₀: dose required to inhibit 50% of plasma lipid peroxidation
Description: (§1) Determine the degree of inhibition of LDL and plasma lipid peroxidation by [8]-gingerol and anti-[8]-gingerdiol by the method of Yagi et al. [Vitamins 39, 105 (1968)].
(§2) Incubate a 0.5 mL solution containing 250 micrograms (µg) of LDL or 0.1 mL of plasma with the test compound, in amounts varying from 0 to 250 µg, for 30 minutes at 24°C. To this mixture add 10 µL of a cupric sulfate solution (final concentration 18 µM in LDL assay, 2 mM in plasma assay) and incubate at 37°C for 2.5 hours or 18 hours. Determine the amount of peroxidation of LDL or plasma by the thiobarbituric acid assay. Calculate the dose of test compound required to inhibit 50% of LDL or plasma lipid peroxidation (ID₅₀) and the concentration of test compound required to inhibit 50% of LDL or plasma lipid peroxidation (IC₅₀).

LDL = assay: Inhibition of LDL lipid peroxidation (cupric sulfate induced, thiobarbituric acid assay, method of Yagi et al.); assay type: biochemical; details: 250 µg LDL in 0.5 mL, cupric sulfate 18 µM, 37°C for 2.5 hours or 18 hours; for pIC50: read-out: LDL Perox. IC₅₀; for LDL Perox. ID₅₀: dose required to inhibit 50% of LDL peroxidation
Description: as §1, §2

aortas = assay: Antiatherogenic effect in the cholesterol-fed rabbit (Sudan IV stained aortic lesions); assay type: in vivo; details: rabbits fed 1% cholesterol chow with 0.5% (w/w) compound for 56 days, n=5
Text: Feed rabbits with 1% cholesterol (w/w) in standard rabbit chow supplemented with (n=5) or without (n=6) 0.5% anti-[8]-gingerdiol (w/w) for 56 days. Each rabbit consumes 120 grams of food per day. Immediately following sacrifice by intravenous injection of sodium pentobarbital, dissect the aortas from the ascending arch to the […] bifurcation.
Remove extraneous adipose tissue, open the aortas longitudinally and rinse several times with saline. Stain the aortas with Sudan IV and photograph using the method described by Mao et al. [J.Med.Chem. 34, 302 (1991)]. Digitize the areas of sudanophilic lesions in the thoracic region of the aorta with a Magiscan image analysis system. Distinguish stained versus unstained areas on the basis of Sudan Red staining. Quantitate the corresponding lesioned and unlesioned areas accordingly.

[1] = Effect on serum cholesterol in the cholesterol-fed rabbit; assay type: in vivo
Text: Feed rabbits with 1% cholesterol (w/w) in standard rabbit chow supplemented with (n=5) or without (n=8) 0.5% anti-[8]-gingerdiol (w/w). Each rabbit consumes 120 grams of food per day. Collect blood samples and determine cholesterol in freshly prepared serum using an enzymatic method described by Mao et al., Clin.Chem 29, 1890 (1983).

## CCCCCCCC(O)CC(=O)CCc1ccc(O)c(OC)c1 (centres unmarked) [[8]-Gingerol, 1-(4'-Hydroxy-3'-methoxyphenyl)-5-hydroxy-3-dodecanone]
plasma
  pIC50: 5.08
  Plas.Lipid Perox. ID₅₀: 5 nmol
LDL
  pIC50: 3.96
  LDL Perox. ID₅₀: 60 nmol

## CCCCCCCC(O)CC(O)CCc1ccc(O)c(OC)c1 (stereo not drawn) [anti-[8]-Gingerdiol, Anti-1-(4'-hydroxy-3'-methoxyphenyl)-3,5-dodecanediol]
plasma
  pIC50: 4.78
  Plas.Lipid Perox. ID₅₀: 10 nmol
LDL
  pIC50: 4.14
  LDL Perox. ID₅₀: 40 nmol
aortas; abdominal aorta, control 28 ± 7
  % Lesions (±SEM) in Abdominal: 24 ± 10%
aortas; aortic arch, control 83 ± 7
  % Lesions (±SEM) in Arch: 73 ± 12%
aortas; thoracic aorta, control 62 ± 8
  % Lesions (±SEM) in Thoracic: 38 ± 16%
[1]; Day 0 (baseline), rabbits fed 1% cholesterol chow with 0.5% (w/w) compound, n=5
  Cholesterol (mg/dL±SEM) Day 0: 82 ± 12 mg/dL
[1]; Day 10, rabbits fed 1% cholesterol chow with 0.5% (w/w) compound, n=5, control 790 ± 103
  Cholesterol (mg/dL±SEM) Day 10: 515 ± 154 mg/dL
[1]; Day 28, rabbits fed 1% cholesterol chow with 0.5% (w/w) compound, n=5, control 2177 ± 97
  Cholesterol (mg/dL±SEM) Day 28: 1615 ± 216 mg/dL
